Assay results: patent EP2151237A1, “PHARMACEUTICAL COMPOSITION COMBINING A NON-STEROIDAL ANTI-INFLAMMATORY AGENT AND AN ANTICONVULSANT AGENT” (priority 2007, dated 2008)

Columns and labels:
other common receptors = conditions: benzodiazepine, glutamate, NMDA, α1, α2, β-adrenergic, muscarinic, nicotinic, dopaminergic, histaminic, serotoninergic, opiate, canabinoid receptors, voltage-dependent calcium or sodium channels; cited from earlier work
[1] = tested on: A-carrageenin-induced hyperalgesia; test: A-carrageenin-induced peripheral inflammatory hyperalgesia in rat paw, paw latency (SLP); conditions: for ED50: Rattus norvegicus, po, 2 h, read-out: DE50 value; for peak effect / maximum effect time: time after administration, ipsilateral paw SLP
Protocol: In this study, an isobolographic analysis was conducted in order to test the interaction between Gabapentin and Meloxicam administered under three different conditions.
Sprague-Dawley male rats were used, with an approximate weight of 200-300 g. […] Rats were used once and they only received one dose of the drugs or the combination thereof.
Rats were placed in a spin cylinder to 4 rpm and one of their paws was connected to a computer terminal. After acclimatization for 1 hour, rats were administered 100 µl of 1% A-carrageenin solution on the plantar surface of one rear paw.
These fixed dosage ratios were selected by a DE50 value range for each drug and reciprocal ratio.
In order to determine the interaction nature, the dosage-derived relationship-response for the total dosage of Gabapentin and Meloxicam, was compared to the theoretical dose relationship-additive by a standard parallel line method.

[2] = tested on: α2δ, which are ancillary subunits of voltage-activated calcium channels; conditions: cited from earlier work
[3] = cited from earlier work
[4] = cited from earlier work; remark: listed apart in the source
[5] = Chromatographic testing of blood samples (plasma concentrations); format: in vivo, Sprague-Dawley male rats; conditions: blood samples taken after the assessments
Excerpt: After such assessments, rats were anesthetized with halothane and blood samples were taken for chromatographic testing.

[6] = in its acid form; higher than Piroxicam; cited from earlier work
rat stomachs = conditions: cited from earlier work
[7] = cited from earlier work; remark: listed apart in the source

Compound | affinity to other common receptors (other common receptors) | ED50 [1] [mg/kg] | contralateral paw response latencies ([1]; non-swollen contralateral rear paw) | peak effect / maximum effect time [1] [min] | affinity to α2δ proteins [2] | time to maximum plasma concentrations ([3]; after the administration) [h] | binding to plasmatic proteins ([3]; plasma) [%] | solubility in water [4] | effect of additional presence of Meloxicam on plasma concentrations of Gabapentin [5] | membrane solubility relative to Piroxicam [6] [fold] | gastric ulcerogenicity (rat stomachs) | concentration ([7]; approximately 50 minutes after the administration) [ng/mL] | adherence to plasmatic proteins ([7]; in vivo) [%] | part of the administered dose eliminated in urine ([7]; the rest is excreted in faeces)
NCC1(CC(=O)O)CCCCC1 [Gabapentin] | no affinity | 19.2 | did not show any alteration | 120 | high affinity | ≤ 3 | 3 | – | – | – | – | – | – | –
Cc1cnc(NC(=O)C2=C(O)c3ccccc3S(=O)(=O)N2C)s1 [Meloxicam, 4-hydroxy-2-methyl-N-(5-methyl-2-thiazolyl)-2H benzotiazine-3-carboxamide-1,1-dioxide] | – | 0.46 | – | 120 | – | – | – | virtually insoluble | does not alter | 10 | minimal gastric ulcerogenicity | 1600 | 99 | Around a half
